Experimental data: patent US20110028458A1, “INHIBITION OF CELL MIGRATION BY A FARNESYLATED DIBENZODIAZEPINONE” (THALLION PHARMACEUTICALS INC., priority 2008, published 2011)

How the values were obtained:
SRBC = assay: Hemolysis of SRBC; format: cell-based
ACAT = ACAT enzyme assay, [14C]cholesterol ester quantitation; format: biochemical, rat; details: 10 μM
Excerpt: (§1) The procedures used were based on known assays: ACAT (from rat; Ref: Largis et al (1989), J. Lipid. Res., vol 30, 681-689), COX-2 (human; Ref: Riendeau et al (1997), Can. J. Physiol. Pharmacol., vol 75, 1088-1095 and Warner et al (1999), Pro. Natl. Acad Sci. USA, vol 96, 7563-7568), 5-LO (human; Ref: Carter et al (1991), J. Pharmacol. Exp. Ther., vol 256, no 3, 929-937, and Safayhi et al (2000), Planta Medica, vol 66, 110-113), PBR (from rat; Le Fur et al (1983), Life Sci. USA, vol 33, 449-457), CysLT1 (human; Martin et al (2001), Biochem. Pharmacol., vol 62, no 9, 1193-1200) and CBR (from rat; Damm et al (1978), Res. Comm. Chem. Pathol. Pharmacol., vol 22, 597-600 and Speth et al (1979), Life Sci., vol 24, 351-357).
Binding assays were done for each of Compounds 1-12 and 46 using ACAT, COX-2, 5-LO, PBR and CysLT1 enzymes. The procedures used are based on the respective references mentioned above and the conditions are summarized in Tables 1 (enzyme assays) and 2 (radioligand receptor assays).
(§2) Binding Assays were done at constant concentration of the compound, in 1% DMSO as vehicle, and are specified below each enzyme/receptor type in Table 3. Significance was obtained when a result was ≧50% binding or inhibition (underlined).

[1] = system: central benzodiazepine receptor (CBR; GABAA); assay: CBR (GABAA) radioligand binding assay, [3H]flunitrazepam, rat brain; details: 10 μM
Excerpt: as §1, §2
As Compound 1 was isolated from structural prediction through genetic analysis and activity identified through in vitro cytotoxic assays, its molecular target(s) were unknown at the time of discovery. Based on the structural characteristics of TLN-4601, we first investigated its binding affinity to the central (GABAA; CBR;) and peripheral (PBR) benzodiazepine receptors. The effect of TLN-4601 on CBR (GABAA) and PBR was initially evaluated in a radioligand-binding assay at MDS Pharma Services (Taipei, Tawain). CBR and PBR were obtained from rat brain and heart membrane-fractions, respectively. Displacement assays were done in the presence of 1 nM [^3H]-Flunitrazepam (CBR; GABAA) or 0.3 nM of [^3H]-PK11195 (PBR). TLN-4601 was tested at 0.01, 0.1, 0.5, 1, 5 and 10 μM. Non-specific binding was estimated in the presence of 10 μM diazepam (CBR) or 100 μM dipyrimadole (PBR) and assays were performed according to previous described methods (Damm et al Res Commun Chem Pathol Pharmacol 22, pp 597-600; Le Fur et al (1983) Life Science 33, pp 449-57). […] This contrats with current specific PBR ligands, which bind the PBR with nanomolar affinity yet their effect on cell proliferation, is in the micromolar range.

[2] = system: HT-29 (colorectal carcinoma); assay: In vitro cytotoxic activity, propidium iodide, HT-29; format: cell-based, human
[3] = system: PC-3 (prostate adenocarcinoma); assay: In vitro cytotoxic activity, propidium iodide, PC-3; format: cell-based, human; details: 96 hrs
SF268 (CNS) = assay: In vitro cytotoxic activity, propidium iodide, SF-268; format: cell-based, human; details: 96 hrs
[4] = system: MDA-MB-231 (mammary gland adenocarcinoma); assay: In vitro cytotoxic activity, propidium iodide, MDA-MB-231; format: cell-based, human; details: 96 hrs

COC(C)(CCC=C(C)C)CCC/C(C)=C/CN1C(=O)c2cccc(O)c2Nc2c(O)cc(O)cc21 (stereo not shown) [Compound 83]
Hemolysis ED50 (concentration necessary to achieve 50% hemolysis of SRBC) (SRBC): 12.4 µg/mL

CC(C)=CCC/C(C)=C/CC/C(C)=C/CN1C(=O)c2cccc(O)c2N(C)c2c(O)cc(O)cc21 [Compound 2]
Percentage of inhibition or binding activity, ACAT (ACAT): 51% | Percentage of inhibition or binding activity, CBR [1]: 22% | Hemolysis ED50 (concentration necessary to achieve 50% hemolysis of SRBC) (SRBC): 5.12 µg/mL

COc1cc(OC)c2c(c1)N(C/C=C(\C)CC/C=C(\C)CCC=C(C)C)C(=O)c1cccc(O)c1N2 [Compound 6]
Percentage of inhibition or binding activity, CBR [1]: 14% | Hemolysis ED50 (concentration necessary to achieve 50% hemolysis of SRBC) (SRBC): >64 µg/mL | GI50 ([2]; Homo sapiens, HT-29, 96 h): > 30000 nM

CC(=O)Oc1cc(OC(C)=O)c2c(c1)N(CC=C(C)CCC=C(C)CCC=C(C)C)C(=O)c1cccc(O)c1N2 [Compound 9]
Percentage of inhibition or binding activity, ACAT (ACAT): 77% | GI50 [3]: 1440 nM | Percentage of inhibition or binding activity, CBR [1]: 10% | GI50 (SF268 (CNS)): 1880 nM | Hemolysis ED50 (concentration necessary to achieve 50% hemolysis of SRBC) (SRBC): >64 µg/mL | GI50 ([2]; 96 hrs): 12600 nM | GI50 [4]: 2480 nM

CC(=O)Oc1cccc2c1Nc1c(OC(C)=O)cc(O)cc1N(CC=C(C)CCC=C(C)CCC=C(C)C)C2=O [Compound 10]
Percentage of inhibition or binding activity, ACAT (ACAT): 90% | GI50 [3]: 1350 nM | Percentage of inhibition or binding activity, CBR [1]: 5% | GI50 (SF268 (CNS)): 2020 nM | Hemolysis ED50 (concentration necessary to achieve 50% hemolysis of SRBC) (SRBC): >64 µg/mL | GI50 ([2]; 96 hrs): 13000 nM | GI50 [4]: 1550 nM

CC(C)CCCC(C)CCCC(C)CCN1C(=O)c2cccc(O)c2Nc2c(O)cc(O)cc21 (stereo not shown) [Compound 46]
Percentage of inhibition or binding activity, ACAT (ACAT): 8% | Percentage of inhibition or binding activity, CBR [1]: 27% | Hemolysis ED50 (concentration necessary to achieve 50% hemolysis of SRBC) (SRBC): 13.9 µg/mL

CCCCN1c2c(O)cccc2C(=O)N(C/C=C(\C)CC/C=C(\C)CCC=C(C)C)c2cc(O)cc(O)c21 [Compound 64]
Hemolysis ED50 (concentration necessary to achieve 50% hemolysis of SRBC) (SRBC): >64 µg/mL

CCCN1c2c(O)cccc2C(=O)N(C/C=C(\C)CC/C=C(\C)CCC=C(C)C)c2cc(O)cc(O)c21 [Compound 63]
Hemolysis ED50 (concentration necessary to achieve 50% hemolysis of SRBC) (SRBC): >64 µg/mL

CC(=O)NC(C)(CCC=C(C)C)CCC/C(C)=C/CN1C(=O)c2cccc(O)c2Nc2c(O)cc(O)cc21 (stereo not shown) [Compound 92]
Hemolysis ED50 (concentration necessary to achieve 50% hemolysis of SRBC) (SRBC): >64 µg/mL | GI50 ([2]; Homo sapiens, HT-29, 96 h): > 30000 nM

CC(C)=CCCC(C)(O)CCC/C(C)=C/CN1C(=O)c2cccc(O)c2Nc2c(O)cc(O)cc21 (stereo not shown) [Compound 89]
Hemolysis ED50 (concentration necessary to achieve 50% hemolysis of SRBC) (SRBC): >64 µg/mL | GI50 ([2]; Homo sapiens, HT-29, 96 h): > 30000 nM

COC(C)(C)CCCC(C)(CCC/C(C)=C/CN1C(=O)c2cccc(O)c2Nc2c(O)cc(O)cc21)OC (stereo not shown) [Compound 84]
Hemolysis ED50 (concentration necessary to achieve 50% hemolysis of SRBC) (SRBC): >32 µg/mL

CC(C)=CCCC1(C)OC1CC/C(C)=C/CN1C(=O)c2cccc(O)c2Nc2c(O)cc(O)cc21 (stereo not shown) [Compound 17]
GI50 [3]: 18700 nM | GI50 (SF268 (CNS)): 13400 nM | Hemolysis ED50 (concentration necessary to achieve 50% hemolysis of SRBC) (SRBC): 35.0 µg/mL | GI50 ([2]; 96 hrs): > 30000 nM | GI50 [4]: > 30000 nM

[2H]C([2H])([2H])N1c2c(O)cccc2C(=O)N(C/C=C(\C)CC/C=C(\C)CCC=C(C)C)c2cc(O)cc(O)c21 [Compound 98]
Hemolysis ED50 (concentration necessary to achieve 50% hemolysis of SRBC) (SRBC): 4.5 µg/mL

CC(C)CCCC(C)CCCC(C)CCN1C(=O)c2cccc(O)c2N(C)c2c(O)cc(O)cc21 (stereo not shown) [Compound 78]
Hemolysis ED50 (concentration necessary to achieve 50% hemolysis of SRBC) (SRBC): 9.89 µg/mL

CCN1c2c(O)cccc2C(=O)N(CC=C(C)CCCC(C)(CCCC(C)(C)OC)OC)c2cc(O)cc(O)c21 (stereo not shown) [Compound 87]
GI50 [3]: 1390 nM | GI50 (SF268 (CNS)): 910 nM | Hemolysis ED50 (concentration necessary to achieve 50% hemolysis of SRBC) (SRBC): >64 µg/mL | GI50 ([2]; 96 hrs): 1830 nM | GI50 [4]: 2400 nM

CC(=O)Oc1cc(O)c2c(c1)N(CC=C(C)CCC=C(C)CCC=C(C)C)C(=O)c1cccc(OC(C)=O)c1N2 [Compound 11]
Percentage of inhibition or binding activity, ACAT (ACAT): 71% | GI50 [3]: 5350 nM | Percentage of inhibition or binding activity, CBR [1]: 20% | GI50 (SF268 (CNS)): 5790 nM | Hemolysis ED50 (concentration necessary to achieve 50% hemolysis of SRBC) (SRBC): 9.8 µg/mL | GI50 ([2]; 96 hrs): 16000 nM | GI50 [4]: 7720 nM

COC(C)(CCC=C(C)C)CCC/C(C)=C/CN1C(=O)c2cccc(O)c2N(C)c2c(O)cc(O)cc21 (stereo not shown) [Compound 80]
Hemolysis ED50 (concentration necessary to achieve 50% hemolysis of SRBC) (SRBC): >64 µg/mL

COc1cc(O)cc2c1Nc1c(O)cccc1C(=O)N2C/C=C(\C)CC/C=C(\C)CCC=C(C)C [Compound 5]
Percentage of inhibition or binding activity, ACAT (ACAT): 60% | Percentage of inhibition or binding activity, CBR [1]: 21% | Hemolysis ED50 (concentration necessary to achieve 50% hemolysis of SRBC) (SRBC): >64 µg/mL

CCC(C)N1c2c(O)cccc2C(=O)N(C/C=C(\C)CC/C=C(\C)CCC=C(C)C)c2cc(O)cc(O)c21 (stereo not shown) [Compound 77]
Hemolysis ED50 (concentration necessary to achieve 50% hemolysis of SRBC) (SRBC): 60.9 µg/mL

COC(C)(C)CCC/C(C)=C/CC/C(C)=C/CN1C(=O)c2cccc(O)c2Nc2c(O)cc(O)cc21 [Compound 82]
Hemolysis ED50 (concentration necessary to achieve 50% hemolysis of SRBC) (SRBC): >64 µg/mL

CCN1c2c(O)cccc2C(=O)N(C/C=C(\C)CC/C=C(\C)CCCC(C)(C)OC)c2cc(O)cc(O)c21 [Compound 85]
Hemolysis ED50 (concentration necessary to achieve 50% hemolysis of SRBC) (SRBC): >64 µg/mL

CCCCCCN1c2c(O)cccc2C(=O)N(C/C=C(\C)CC/C=C(\C)CCC=C(C)C)c2cc(O)cc(O)c21 [Compound 67]
Hemolysis ED50 (concentration necessary to achieve 50% hemolysis of SRBC) (SRBC): >64 µg/mL

COc1cccc2c1Nc1c(O)cc(O)cc1N(C/C=C(\C)CC/C=C(\C)CCC=C(C)C)C2=O [Compound 4]
Percentage of inhibition or binding activity, CBR [1]: 12% | Hemolysis ED50 (concentration necessary to achieve 50% hemolysis of SRBC) (SRBC): >64 µg/mL

CCN1c2c(O)cccc2C(=O)N(C/C=C(\C)CC/C=C(\C)CCC=C(C)C)c2cc(O)cc(O)c21 [Compound 14]
GI50 [3]: 1150 nM | GI50 (SF268 (CNS)): 760 nM | Hemolysis ED50 (concentration necessary to achieve 50% hemolysis of SRBC) (SRBC): 43.9 µg/mL | GI50 ([2]; 96 hrs): 2040 nM | GI50 [4]: 2160 nM

CC(C)=CCC/C(C)=C/CC/C(C)=C/CN1C(=O)c2cccc(O)c2N(Cc2ccccc2)c2c(O)cc(O)cc21 [Compound 3]
Percentage of inhibition or binding activity, ACAT (ACAT): 63% | Percentage of inhibition or binding activity, CBR [1]: 10% | Hemolysis ED50 (concentration necessary to achieve 50% hemolysis of SRBC) (SRBC): >64 µg/mL

C/C(=C\CN1C(=O)c2cccc(O)c2Nc2c(O)cc(O)cc21)CC/C=C(\C)CCC1OC1(C)C (stereo not shown) [Compound 18]
GI50 [3]: > 30000 nM | GI50 (SF268 (CNS)): 7450 nM | Hemolysis ED50 (concentration necessary to achieve 50% hemolysis of SRBC) (SRBC): >64 µg/mL | GI50 ([2]; 96 hrs): > 30000 nM | GI50 [4]: > 30000 nM

CC(C)=CCC/C(C)=C/CC/C(C)=C/CN1C(=O)c2cccc(O)c2N(C)c2c(O)cc(O)cc21 [Compound 98]
GI50 [3]: 820 nM | GI50 (SF268 (CNS)): 160 nM | GI50 ([2]; 96 hrs): 690 nM | GI50 [4]: 510 nM

COc1cc(OC)c2c(c1)N(CC=C(C)CCC=C(C)CCC=C(C)C)C(=O)c1cccc(OC)c1N2 [Compound 8]
Percentage of inhibition or binding activity, ACAT (ACAT): 40% | Percentage of inhibition or binding activity, CBR [1]: 1%
